Tests used:
Format in all cases: biochemical
TNIK/MAP4K7 = TNIK/MAP4K7 (Homo sapiens, UniProt Q9UKE5); assay: Kinase selectivity panel, TNIK/MAP4K7; details: read-out: pIC50 TNIK/MAP4K7 (converted)
Description: (§1) The data in Table 42 also provides the fold selectivity of the two compounds in favour of MAP4K4 over the tested kinase. The fold selectivity is indicated in parenthesis.

NUAK1 = biological target: T1, NUAK1 (Homo sapiens, UniProt O60285); assay: Kinase selectivity panel, NUAK1
T1 sequence (O60285 1-661): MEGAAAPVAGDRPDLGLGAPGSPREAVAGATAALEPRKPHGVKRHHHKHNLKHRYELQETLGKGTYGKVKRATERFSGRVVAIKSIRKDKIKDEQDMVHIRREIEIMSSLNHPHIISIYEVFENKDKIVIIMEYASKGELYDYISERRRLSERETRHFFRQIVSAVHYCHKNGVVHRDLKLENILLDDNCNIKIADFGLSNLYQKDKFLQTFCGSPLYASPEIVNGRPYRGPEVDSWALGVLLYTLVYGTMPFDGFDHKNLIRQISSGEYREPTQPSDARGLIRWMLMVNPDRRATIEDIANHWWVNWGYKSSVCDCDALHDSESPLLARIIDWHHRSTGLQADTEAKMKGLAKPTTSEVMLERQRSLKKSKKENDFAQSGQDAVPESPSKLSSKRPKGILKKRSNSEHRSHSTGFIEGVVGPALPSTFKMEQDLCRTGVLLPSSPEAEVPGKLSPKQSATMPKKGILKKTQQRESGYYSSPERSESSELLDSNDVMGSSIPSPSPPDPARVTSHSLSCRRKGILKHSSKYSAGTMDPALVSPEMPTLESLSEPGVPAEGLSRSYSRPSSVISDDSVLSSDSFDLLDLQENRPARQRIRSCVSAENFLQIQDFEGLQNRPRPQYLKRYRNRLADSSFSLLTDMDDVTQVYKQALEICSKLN
Description: as §1

ABL1 = ABL1 (Homo sapiens, UniProt P00519); assay: Kinase selectivity panel, ABL1
Description: as §1

MLK1/MAP3K9 = MLK1/MAP3K9 (Homo sapiens, UniProt P80192); assay: Kinase selectivity panel, MLK1/MAP3K9
Description: as §1

Chain of MLK1/MAP3K9 (P80192 whole entry): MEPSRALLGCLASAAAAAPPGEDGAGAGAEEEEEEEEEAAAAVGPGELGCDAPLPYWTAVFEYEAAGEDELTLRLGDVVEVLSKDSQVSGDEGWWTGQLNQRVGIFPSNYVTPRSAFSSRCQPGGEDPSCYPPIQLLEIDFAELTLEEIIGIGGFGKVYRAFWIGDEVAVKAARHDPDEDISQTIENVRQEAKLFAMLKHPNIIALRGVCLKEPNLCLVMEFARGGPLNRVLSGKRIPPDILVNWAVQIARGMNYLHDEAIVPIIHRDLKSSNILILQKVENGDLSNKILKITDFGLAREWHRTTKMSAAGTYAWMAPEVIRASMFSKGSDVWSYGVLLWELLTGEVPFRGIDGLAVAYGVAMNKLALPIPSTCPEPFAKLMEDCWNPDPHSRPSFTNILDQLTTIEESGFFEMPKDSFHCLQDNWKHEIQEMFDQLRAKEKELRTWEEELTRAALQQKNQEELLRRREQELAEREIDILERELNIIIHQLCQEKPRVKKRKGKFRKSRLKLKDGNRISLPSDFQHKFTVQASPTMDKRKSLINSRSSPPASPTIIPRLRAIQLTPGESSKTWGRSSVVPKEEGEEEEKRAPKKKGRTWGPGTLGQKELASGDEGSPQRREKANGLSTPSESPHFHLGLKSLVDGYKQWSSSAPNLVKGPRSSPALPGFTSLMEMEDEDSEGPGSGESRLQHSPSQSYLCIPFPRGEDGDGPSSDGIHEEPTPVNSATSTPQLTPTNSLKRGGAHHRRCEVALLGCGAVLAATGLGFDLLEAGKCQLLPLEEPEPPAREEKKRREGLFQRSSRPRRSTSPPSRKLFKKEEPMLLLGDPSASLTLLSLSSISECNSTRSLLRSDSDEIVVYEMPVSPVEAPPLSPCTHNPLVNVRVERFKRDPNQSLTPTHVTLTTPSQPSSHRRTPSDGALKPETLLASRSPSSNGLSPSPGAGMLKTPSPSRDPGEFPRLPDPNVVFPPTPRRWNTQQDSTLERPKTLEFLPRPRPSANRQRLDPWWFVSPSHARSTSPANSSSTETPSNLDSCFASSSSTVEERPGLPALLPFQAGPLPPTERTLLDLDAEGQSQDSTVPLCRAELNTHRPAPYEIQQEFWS
Chain of ABL1 (P00519 whole entry, species assumed): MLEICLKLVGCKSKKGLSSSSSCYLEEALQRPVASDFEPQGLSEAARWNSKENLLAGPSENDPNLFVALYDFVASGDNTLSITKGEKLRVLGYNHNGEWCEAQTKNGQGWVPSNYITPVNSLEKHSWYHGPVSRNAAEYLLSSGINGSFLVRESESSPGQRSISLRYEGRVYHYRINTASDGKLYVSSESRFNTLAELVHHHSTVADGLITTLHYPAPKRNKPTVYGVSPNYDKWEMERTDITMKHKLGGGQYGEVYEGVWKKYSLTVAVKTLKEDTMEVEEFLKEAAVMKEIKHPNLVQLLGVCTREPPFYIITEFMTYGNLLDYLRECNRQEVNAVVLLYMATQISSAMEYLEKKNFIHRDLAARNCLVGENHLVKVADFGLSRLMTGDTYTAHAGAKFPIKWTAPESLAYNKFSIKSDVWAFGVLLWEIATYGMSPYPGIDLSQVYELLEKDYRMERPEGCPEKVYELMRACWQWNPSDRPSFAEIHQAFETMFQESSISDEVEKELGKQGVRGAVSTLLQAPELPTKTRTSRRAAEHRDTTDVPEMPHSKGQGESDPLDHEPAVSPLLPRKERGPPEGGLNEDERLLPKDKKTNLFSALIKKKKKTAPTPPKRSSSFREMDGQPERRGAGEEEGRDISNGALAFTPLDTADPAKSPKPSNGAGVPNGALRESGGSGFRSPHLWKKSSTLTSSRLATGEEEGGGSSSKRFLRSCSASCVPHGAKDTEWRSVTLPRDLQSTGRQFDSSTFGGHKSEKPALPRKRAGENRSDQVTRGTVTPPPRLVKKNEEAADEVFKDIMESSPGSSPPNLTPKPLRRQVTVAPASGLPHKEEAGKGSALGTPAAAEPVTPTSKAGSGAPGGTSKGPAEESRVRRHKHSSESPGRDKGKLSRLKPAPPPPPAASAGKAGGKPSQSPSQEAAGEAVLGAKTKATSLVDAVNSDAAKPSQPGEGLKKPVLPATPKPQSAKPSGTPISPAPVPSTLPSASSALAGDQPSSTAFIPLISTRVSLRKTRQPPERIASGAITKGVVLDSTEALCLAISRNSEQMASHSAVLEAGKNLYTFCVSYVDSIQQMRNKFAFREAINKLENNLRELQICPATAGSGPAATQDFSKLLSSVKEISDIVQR
Chain of TNIK/MAP4K7 (Q9UKE5 whole entry): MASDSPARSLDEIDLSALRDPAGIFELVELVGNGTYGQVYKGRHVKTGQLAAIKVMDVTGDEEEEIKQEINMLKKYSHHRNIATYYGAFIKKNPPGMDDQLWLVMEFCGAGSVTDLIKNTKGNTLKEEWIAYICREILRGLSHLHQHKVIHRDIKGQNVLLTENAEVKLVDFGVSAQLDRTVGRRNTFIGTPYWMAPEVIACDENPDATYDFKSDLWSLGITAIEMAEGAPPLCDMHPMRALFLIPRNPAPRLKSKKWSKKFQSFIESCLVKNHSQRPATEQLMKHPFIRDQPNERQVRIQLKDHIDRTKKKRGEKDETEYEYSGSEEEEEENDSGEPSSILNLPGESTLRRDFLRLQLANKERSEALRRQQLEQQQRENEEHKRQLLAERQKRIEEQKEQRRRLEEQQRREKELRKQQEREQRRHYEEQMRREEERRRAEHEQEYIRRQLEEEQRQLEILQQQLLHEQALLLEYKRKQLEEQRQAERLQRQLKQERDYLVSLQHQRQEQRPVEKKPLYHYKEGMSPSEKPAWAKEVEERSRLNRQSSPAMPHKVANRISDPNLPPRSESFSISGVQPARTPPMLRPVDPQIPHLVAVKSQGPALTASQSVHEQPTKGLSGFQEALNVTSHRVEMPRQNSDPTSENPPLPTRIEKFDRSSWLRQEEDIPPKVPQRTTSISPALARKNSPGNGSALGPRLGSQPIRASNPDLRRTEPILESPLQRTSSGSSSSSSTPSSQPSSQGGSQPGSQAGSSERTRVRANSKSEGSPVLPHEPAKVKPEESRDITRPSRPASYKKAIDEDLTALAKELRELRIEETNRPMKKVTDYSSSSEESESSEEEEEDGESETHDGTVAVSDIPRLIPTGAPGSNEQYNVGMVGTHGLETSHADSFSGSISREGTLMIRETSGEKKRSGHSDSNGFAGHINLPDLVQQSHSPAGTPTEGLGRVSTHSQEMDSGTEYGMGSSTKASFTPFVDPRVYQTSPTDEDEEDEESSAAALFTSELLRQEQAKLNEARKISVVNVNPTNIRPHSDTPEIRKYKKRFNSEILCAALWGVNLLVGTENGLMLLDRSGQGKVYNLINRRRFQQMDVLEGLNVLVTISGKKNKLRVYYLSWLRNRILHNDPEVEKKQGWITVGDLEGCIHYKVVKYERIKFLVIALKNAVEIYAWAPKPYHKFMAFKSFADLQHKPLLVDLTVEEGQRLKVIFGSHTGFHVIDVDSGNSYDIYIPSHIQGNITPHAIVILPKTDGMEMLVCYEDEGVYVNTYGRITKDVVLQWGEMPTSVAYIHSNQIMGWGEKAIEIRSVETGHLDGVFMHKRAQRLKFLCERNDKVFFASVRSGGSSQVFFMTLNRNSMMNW

`CC(C)(O)CCOc1ccc(-c2cn(-c3cccnc3)c3nc[nH]c(=O)c23)cc1` [Ex-78, 5-(4-(3-hydroxy-3-methylbutoxy)phenyl)-7-(pyridin-3-yl)-3,7-dihydro-4H-pyrrolo[2,3-d]pyrimidin-4-one] was tested, and the IC50 (TNIK/MAP4K7) was 126 nM, the “fold selectivity MAP4K4 over NUAK1” value (NUAK1; in favour of MAP4K4) was “(16) fold” and the IC50 (NUAK1; read-out: pIC50 NUAK1 (converted)) was 501 nM. The “fold selectivity MAP4K4 over ABL1” value (ABL1; in favour of MAP4K4) was “(251) fold”, the IC50 (ABL1; read-out: pIC50 ABL1 (converted)) was 7940 nM and the “fold selectivity MAP4K4 over MLK1/MAP3K9” value (MLK1/MAP3K9; in favour of MAP4K4) was “(4) fold”. For the same compound, the IC50 (MLK1/MAP3K9; read-out: pIC50 MLK1/MAP3K9 (converted)) was 126 nM.

Source: patent US12247045B2, “MAP4K4 inhibitors” (Imperial College Innovations Limited, priority 2018, dated 2025)
